In patent US4442093A, “Method for administering 24,25-dihydroxycholecalciferol to persons suffering from hypercalcemia” (Kureha Kagaku Kogyo Kabushiki Kaisha, priority 1981, dated 1984):

Assays:
[1] = test system: inorganic phosphate in serum; experiment: Serum inorganic phosphate in rats given puromycin aminonucleoside (Example 19); assay type: in vivo, male Wistar rats; conditions: hyperphosphatemia due to puromycin-amino-nucleoside
Method: Puromycin aminonucleoside (hereinafter abbreviated as AN) was dissolved in physiological saline solution to be the concentration of 15 mg of AN/ml.
The thus prepared solution was subcutaneously administered to […] in 9th to 10th week after birth divided equally into 3 groups once a day for continuous 5 days at a daily dose rate of 15 mg/kg body weight, and the administration of AN was suspended for the next 2 weeks. This cycle of 5 days of administration followed by 2 weeks of suspension of administration was repeated 5 times, and from the commencement of the 4th cycle, drinking water was substituted by one of the compositions for oral administration prepared in Example 18, namely, Composition A or Composition B to be taken ad lib by each one of the three groups of the rats for 38 days therefrom. […] As control, a group consisting of 8 male Wistar rats was used without giving AN and with the oral administration of aqueous 0.1% by weight isopropyl alcohol solution taken ad lib during the same 38 days as above. As comparative example, another group consisting of 8 male Wistar rats was used with the same administration of AN as in the test groups and with the oral administration of aqueous 0.1% by weight isopropyl alcohol taken ad lib as in the control group.

gastric ulcer = experiment: Prevention of gastric ulcer due to pyloric ligation (Example 9); assay type: in vivo, male Wistar rats; conditions: 200 µg/kg i.p. once after pyloric ligation, 15 h
Method: Twenty male Wistar rats of average body weight of 250 g were divided equally into two groups, and used in the following test:
After 36 hour fasting, all the rats were subjected to pyloric ligation, and the rats of the first group were administered with 2 ml/kg of Panacete®810 (triglyceride ester of C8 and C10 -fatty acid, made by Nippon Oil & Fats Co., Ltd.) containing 0.2% by weight of ethanol intraperitoneally once just after ligation. The rats of the second group were administered with 24R,25-(OH)2 -D3 dissolved in Panacete®810 containing 0.2% by weight of ethanol intraperitoneally at a dose rate of 200 micrograms/kg body weight once just after ligation. After 15 hours of administration, all the rats were subjected to gastrectomy, and the presence or absence of the gastroparietal ulcer was examined on all the resected stomach.
As a result, the occurrence of gastric ulcer was found on 9 rats of 10 rats of the first group, and on 2 rats of 10 rats of the second group.
In a similar test, 24S,25-(OH)2 -D3 was used instead of 24R,25-(OH)2 -D3 to examine its effect in preventing the occurrence of gastric ulcer due to pyloric ligation. As a result, the occurrence of gastric ulcer was recognized on 3 rats of 10 rats of the group similarly treated to those of the second group.

thymus = experiment: Weight ratio of thymus to body and number of thymocytes in rats given puromycin aminonucleoside (Example 11); assay type: in vivo, male JCL-Wistar rats; conditions: 100 µg/kg/day oral 12 days with puromycin aminonucleoside 15 mg/kg s.c.
Method: Thirty-two male JCL-Wistar rats in tenth week after birth were used in the present test while keeping them in a room at 21±1° C. and 60±5% RH with solid diet (CE 2) and water taken ad lib.
They were divided equally into 4 groups (one group consisting of 8 animals), their treatments in the test being as follows:
subcutaneous injection of puromycin aminonucleoside as in the second group and oral administration of 24R,25-(OH)2 -D3 dissolved in Panacete 810 once a day at a daily dose rate of 100 micrograms/kg for continuous 12 days.
subcutaneous injection of puromycin aminonucleoside as in the second group and oral administration of 24S,25-(OH)2 -D3 dissolved in Panacete 810 once a day at a daily dose rate of 100 micrograms/kg for continuous 12 days.
After uniformly loosing the thymus in phosphate buffer solution with a forcets and fully pipetting, the mixture was filtered through a stainless steel mesh (Tylar standard #200) and the filtrate containing the thymic cells was stained with Turk's solution. The thus stained specimen was subjected to counting under a microscope.

[2] = test system: K-562 tumour cell derived from human leukemia; experiment: Inhibition of proliferation of K-562 cells (Example 24); assay type: cell-based; conditions: 3 days
Method: Cultured K-562 tumour cell derived from human leukemia, which proliferates in a suspended state in RPMI-1640 culture medium added with 10% by weight of fetal bovine serum was used in the following experiment.
The cells were cultured in the above-mentioned culture medium at an initial cell concentration of 1×10^5 cells/ml with or without adding 24R,25-(OH)2 -D3, which was placed in dishes kept in an incubator of an atmosphere consisting of 95% by volume of air and 5% by volume of gaseous carbon dioxide at 37° C. After culturing 3 days, the cultured medium was stained with tripan blue to count the total number of living cells. The results are shown in Table 18 with the specifically added substances into the culture medium other than fetal bovine serum of 10% by weight.

[3] = test system: inorganic phosphate in serum; experiment: Serum inorganic phosphate in 5/6-nephrectomized rats (Example 18); assay type: in vivo, male Wistar rats; conditions: hyperphosphatemia due to 5/6-nephrectomy
Method: Ten milligrams of 24R,25-(OH)2 -D3 was dissolved in 10 ml of isopropyl alcohol and one ml of the thus obtained solution was admixed into 1,000 ml of distilled water under agitation. The thus obtained solution has the concentration of isopropyl alcohol of 0.1% by weight and the concentration of 24R,25-(OH)2 -D3 of 1 microgram/ml and was called as the composition for oral administration A (abbreviated and referred to as Composition A hereinafter). In a similar manner as the above, another composition for oral administration of the concentration of 24R,25-(OH)2 -D3 of 0.1 microgram/ml and the concentration of isopropyl alcohol of 0.1% by weight was prepared, and referred to hereinafter as Composition B.
Thirty male Wistar rats of average body weight of 200±30 g were subjected to operation of 5/6--nephrectomy.
Ten male Wistar rats of the same average body weight were subjected to sham operation. After one month of the operation, the above-mentioned Composition A or Composition B was given to each group (one group consisting of 10 animals) of the rats 6 times a week for 9 weeks to be taken ad lib. The amount of 24R,25-(OH)2 -D3 taken by each rat for a week was calculated from the total amount of water taken by the rats of the group, the total amount of water taken by the rats being actually measured week after week.

blood sugar level = experiment: Blood sugar in patients (Example 23); assay type: in vivo, human
Method: Three patients shown in Table 17 were treated by oral administration of a daily dose of 4 to 6 micrograms of 24R,25-(OH)2 -D3 in a form of the soft capsule composition obtained in Example 6 for 3 continuous weeks. After the completion of administration, the patient was fasted for a night and their blood specimen was collected at 11:00 a.m. in the next morning.
Effectiveness of reducing blood sugar level (ERBS) is calculated from the […]

[4] = average of 3 patients, 4 to 6 µg/day oral, 3 weeks
[5] = person fourteen, 4 µg/day oral, 3 weeks
[6] = person nineteen, 6 µg/day oral, 3 weeks
[7] = person seven, 6 µg/day oral, 3 weeks

## C=C1CC[C@H](O)C/C1=C/C=C1\CCC[C@]2(C)[C@@H]([C@H](C)CC[C@@H](O)C(C)(C)O)CC[C@@H]12 [24R,25-(OH)2 -D3]
[1]
  inorganic phosphate level in serum: significant reduction of the inorganic phosphate level
Gastric ulcer
  occurrence of gastric ulcer: 2 rats of 10 rats
thymus
  Number of thymocytes: (32 ± 5.5) × 10^7
  Weight ratio: thymus/body: 0.00101 ± 0.00011
[2]; 1 microgram/ml
  Number of K-562 cells after culture: 8.5 ×10^5 cells/ml
[2]; 10 micrograms/ml
  Number of K-562 cells after culture: 3.5 ×10^5 cells/ml
[2]; Homo sapiens, K562, 72 h, 1 microgram/ml, vs dimethylsulfoxide, read-out: Inhibition Rate of K-562 cells
  inhibition at 1 µg/mL: 14%
[2]; Homo sapiens, K562, 72 h, 10 micrograms/ml, vs dimethylsulfoxide, read-out: Inhibition Rate of K-562 cells
  inhibition at 10 µg/mL: 65%
[3]
  inorganic phosphate level in serum: significant reduction of the inorganic phosphate level
Blood sugar level; [4]
  Blood sugar level after administration, average: 129.7 ± 9.1 mg/dL
  Effectiveness in reducing blood sugar level, average: 86.2%
Blood sugar level; average of 3 patients, baseline
  Blood sugar level before administration, average: 182 ± 13.5 mg/dL
Blood sugar level; [5]
  Blood sugar level after administration: 120 mg/dL
  Effectiveness in reducing blood sugar level: 100%
Blood sugar level; person fourteen, baseline
  Blood sugar level before administration: 168 mg/dL
Blood sugar level; [6]
  Blood sugar level after administration: 138 mg/dL
  Effectiveness in reducing blood sugar level: 76%
Blood sugar level; person nineteen, baseline
  Blood sugar level before administration: 195 mg/dL
Blood sugar level; [7]
  Blood sugar level after administration: 131 mg/dL
  Effectiveness in reducing blood sugar level: 82.5%
Blood sugar level; person seven, baseline
  Blood sugar level before administration: 183 mg/dL
